Measured values: US20240182333A1, “METHODS OF TREATING COMPOUNDS USING VISIBLE LIGHT-ENABLED ACTIVATION OF PEROXYDISULFATE” (THE TEXAS A&M UNIVERSITY SYSTEM, priority 2022, published 2024)

How the values were obtained:
[1] = Degradation of compounds by PDS in dark and under visible light (HPLC); format: physicochemical; details: for pseudo-first-order rate constant kobs of ATZ degradation: [ATZ]0=10.0 μM, [PDS]0=5.0 mM, pH0=7.0, 25° C.
Experimental: Various reactions were carried out in 40 mL glass tubes with constant stirring at 300 rpm at 25±0.5° C. The temperature of solutions was monitored using a thermometer throughout the experiments. The initial concentration of atrazine (ATZ) was 10.0 uM, and the initial concentration of PDS was 5.0 mM. The irradiation fluxes emitted from the lamp and received by the solutions were measured with a LS125 UV light meter (Linshang Technology, Shenzhen, China) and a Solar Light PMA2100 radiometer (Solar Light Company, Philadelphia,
(§1) USA) 10 cm away from the lamp. The tubes in the dark treatments were covered with aluminum foil. To further confirm the PDS activation by visible light, experiments were also conducted with a UV filter film covering the simulated sunlight lamp to eliminate the effect of UV light. 1.0 mL of sample was withdrawn from each tube at different elapsed times (t=0, 1, 2, 3, 4, 5, 10, 20, 30, 60, 90, 120, and 240 min) and immediately quenched by 20 μL of 5.0 M sodium thiosulfate. The concentrations of all compositions in collected samples were measured with a Dionex UltiMate 3000 high-performance liquid chromatograph (HPLC) (Sunnyvale, USA). The settings of HPLC are provided in Example 1. The change in the concentration of PDS under different conditions was determined spectrophotometrically via an oxidation decolorization method and a modified iodometric titration method, respectively. The initial and final pH in each tube were measured with an Accumet AE150 pH meter (Westford, USA).
A simulated sunlight lamp was used as the light source in the instant example. The light fluxes that reaction solutions received in glass vials contained 39.8±0.5×10^−3 W/cm^2 of visible light in the wavelength (λ) range of 400-700 nm. The fluxes in the UV ranges contained 8.1±0.2×10^−6 W/cm^2 of UV-A (λ=315-400 nm) and 2.5±0.4×10^−6 W/cm^2 of UV-B (λ=280-315 nm), respectively. The UV-C flux (λ=230-280 nm) was negligible. Based on the flux measurement, UV light only accounted for <0.03% of the total light flux, and thus the light source utilized herein represents almost exclusively the visible light. The chemistry of PDS with visible light irradiation (PDS Light) and without (PDS Dark) was explored using six common herbicides and pharmaceuticals, namely atrazine (ATZ), sulfamethoxazole (SMX), trimethoprim (TMP), sulfadimethoxine (SDM), ibuprofen (IBP), and carbamazepine (CMZ) (FIGS. 1A-1F).

[2] = reported; cited from earlier work
[3] = Quenching, anoxic and D2O experiments of ATZ degradation by PDS; format: physicochemical
Experimental: In order to identify the main reactive species involved in the degradation of ATZ by PDS under light and in dark, four quenchers were added in the beginning of the reactions to scavenge possible reactive species. The concentration of MeOH, tert-butanol (TBA), and L-histidine (L-his) was 0.5 M, and the concentration of superoxide dismutase (SOD) was 50 U·ml^−1. To analyze the impact of oxygen, purified N2 gas was used to purge the system for 10 min before the quenching experiments. All tubes were capped and then sealed with parafilm to maintain an anoxic environment throughout the reaction. The ATZ concentrations in the samples taken at various time points (t=0, 5, 10, 30, 60, 120, and 240 min) were measured using HPLC. The degradation of ATZ was also repeated with D2O as the solvent for phosphate buffer with the same experimental setups.

[4] = Decay of PDS in dark and under visible light; format: physicochemical; details: for PDS decayed: within 240 min, regardless of the phosphate
Experimental: as §1
In order to verify whether PDS was directly activated by visible light, the impacts of solution constituents were examined. Because 10 mM phosphate buffer was added to control the initial pH to 7.0 to take into account of the typical pH of natural waters, the impact of phosphate buffer on the decay of PDS was investigated. […] Approximately 20% and 90% of PDS decayed within 240 min in dark and under visible light, respectively, regardless of the phosphate.

SMILES	ATZ degraded ([1]; PDS Dark, within 30 min) [%]	pseudo-first-order rate constant kobs of ATZ degradation ([1]; PDS Dark)	pseudo-first-order rate constants of ATZ degradation with UV filter versus without UV filter ([1]; PDS Light, UV filter film between lamp and vials)	degradation of ATZ ([1]; PDS Light, in 30 min)	pseudo-first-order rate constant kobs of ATZ degradation ([1]; PDS Light, oxic)	k(SO4^●−/ATZ) [2]	ATZ degradation by PDS Light in presence of L-his ([3]; L-his 0.5 M)	effect of D2O on rate constant of ATZ degradation ([3]; PDS Dark)	pseudo-first-order rate constant for ATZ degradation in D2O relative to water ([3]; PDS Light)	pseudo-first-order rate constant kobs of ATZ degradation ([3]; PDS Light, anoxic condition (N2 purging), without scavengers)	ATZ degradation by PDS Light in presence of scavengers ([3]; all four scavengers (MeOH, TBA, L-his 0.5 M; SOD 50 U·ml^−1))	rate constant for R1 (photolysis of PDS by light) ([4]; based on the rate constant of PDS decay in dark and under light)	PDS decayed ([4]; in dark)	PDS decayed ([4]; under visible light) [%]
CCNc1nc(Cl)nc(NC(C)C)n1 [ATZ, 2-chloro-4-ethylamino-6-isopropylamino-s-triazine]	37	0.72±0.09×10^−2 min^−1	not statistically different	complete degradation	11±3.0×10^−2 min^−1	2.6−4.2×10^9 M^−1·s^−1	almost completely inhibited	negligible	more than 2.5 times	7.3±0.9×10^−2 min^−1	significantly hindered	–	–	–
O=S(=O)([O-])OOS(=O)(=O)[O-].[K+].[K+] [PDS, Potassium peroxydisulfate]	–	–	–	–	–	–	–	–	–	–	–	around 8.8±1.1×10^−3 min^−1	Approximately 20%	~90
